From article PMC8434415, “Chromone Derivatives with α-Glucosidase Inhibitory Activity from the Marine Fungus Penicillium thomii Maire” (Molecules, 2021)

Key:
[1] = system: α-glucosidase; set-up: method as in PMID 25044593; settings: cited from earlier work
[2] = biological target: T1, α-glucosidase from Saccharomyes cerevisiae (Saccharomyces cerevisiae, UniProt P53341); assay: α-glucosidase inhibitory assay (PNPG substrate); format: biochemical; settings: for inhibition at 667 µM: compound at 667 μM; for IC50: tested between 0.2 and 2 mM, three replicates
T1 construct: purchased Sigma-Aldrich (St. Louis, MO, USA)
T1 sequence (P53341 whole entry): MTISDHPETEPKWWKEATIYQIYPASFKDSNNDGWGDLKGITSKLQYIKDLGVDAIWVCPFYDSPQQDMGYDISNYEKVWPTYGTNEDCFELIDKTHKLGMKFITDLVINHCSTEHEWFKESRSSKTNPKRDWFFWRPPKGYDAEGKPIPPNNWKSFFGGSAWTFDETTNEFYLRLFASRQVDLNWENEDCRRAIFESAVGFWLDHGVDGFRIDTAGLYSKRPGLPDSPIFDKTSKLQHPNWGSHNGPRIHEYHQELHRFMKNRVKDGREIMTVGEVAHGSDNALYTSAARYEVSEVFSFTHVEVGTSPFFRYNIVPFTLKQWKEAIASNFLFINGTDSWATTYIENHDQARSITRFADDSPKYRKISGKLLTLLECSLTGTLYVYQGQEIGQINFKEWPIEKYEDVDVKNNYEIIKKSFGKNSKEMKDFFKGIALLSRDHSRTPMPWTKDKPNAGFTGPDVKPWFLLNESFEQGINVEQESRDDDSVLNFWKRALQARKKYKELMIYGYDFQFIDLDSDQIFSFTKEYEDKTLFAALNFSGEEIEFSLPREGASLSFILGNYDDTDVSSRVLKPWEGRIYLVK
Procedure: The α-glucosidase inhibitory effect was performed as follows. The 0.2 U of α-glucosidase from Saccharomyes cerevisiae, purchased from Sigma-Aldrich (St. Louis, MO, USA), was diluted to 0.067 M phosphate buffer consisting of Na2HPO4·12H2O and KH2PO4 (pH 6.8). The assay was conducted in a 60 μL reaction system containing 20 μL of diluted enzyme solution and 20 μL of DMSO or sample (dissolved in DMSO). After 10 min of incubation in the 96-well plates at 37 °C, 20 μL of 4 mM PNPG (4-nitrophenyl-α-D-glucopyranoside, Aladdin, Shanghai, China) was added as substrate to start the enzymatic reaction. The plate was incubated for an additional 20 min at 37 °C, and the reaction was quenched by adding 60 μL of 0.2 M Na2CO3. The final concentrations of tested compounds were between 0.2 and 2 mM. The optical density (OD) was measured at an absorbance wavelength of 405 nm using a Microplate Reader (Tecan, Switzerland). […] Percent inhibition was calculated by the following equation: Inhibition (%) = ((Absorbance of control − Absorbance of test)/Absorbance of control)); IC50 concentrations are calculated using concentration vs. percent inhibition values.

[3] = DPPH radical scavenging (antioxidant) test; settings: for Antioxidant % Inhibition (1000 μM): compound at 1000 μM
Procedure: The DPPH scavenging was assayed following the procedures in our recent published paper. The DPPH radical scavenging test was performed in 96-well microplates. Then, 20 μL of samples at a concentration of 10 mM in MeOH were added to 180 μL (150 μmol/L) DPPH solution. After 30 min of light avoidance, absorbance at 517 nm using a Microplate Reader (Tecan, Switzerland) was measured and the percentage of activity was calculated. All assays were performed in three replicates, and vitamin C was used as a positive control. Percent inhibition was calculated by the following equation: Inhibition (%) = ((Absorbance of control − Absorbance of test)/Absorbance of control)); IC50 concentrations are calculated using concentration vs. percent inhibition values.

[4] = system: several carcinoma cell lines; settings: cited from earlier work
[5] = biological target: liver X receptor α; set-up: method as in PMID 33932772; settings: read-out: dissociation equilibrium constant; cited from earlier work

| Compound | inhibition at 667 µM [2] | Antioxidant % Inhibition (1000 μM) [3] | further results |
| --- | --- | --- | --- |
| COc1cc(OC)c2c(=O)cc(CCCC(=O)O)oc2c1 [4-(5,7-dimethoxy-4-oxo-4H-chromen-2-yl)butanoic acid] | – | – | inhibitory activity on α-glucosidase (in words) [1]: moderate inhibitory activity |
| C[C@H]1O[C@H](O[C@H]2[C@H](O)[C@@H](O)[C@@H](O[C@H]3[C@H](O)[C@@H](O)C(O)O[C@@H]3CO)O[C@@H]2CO)[C@H](O)[C@@H](O)[C@@H]1N[C@H]1C=C(CO)[C@@H](O)[C@H](O)[C@H]1O (some centres unmarked) [Acarbose, acarbose, reference compound] | 27.7% | – | – |
| COc1cc(O)c2c(=O)cc(CCC[C@@H]3CCC(=O)O3)oc2c1 [Compound 1, Penithochromone M] | -3.43% | 7.24% | – |
| O=C(O)CCCCC(O)Cc1cc(=O)c2c(O)cc(O)cc2o1 (centres unmarked) [Compound 2, Penithochromone N] | 15.1% | 35.7% | IC50 [3]: 1970 ± 156 µM |
| COC(=O)CCCCC(O)Cc1cc(=O)c2c(O)cc(OC)cc2o1 (centres unmarked) [Compound 3, Penithochromone O] | 23.8% | 20.4% | – |
| COc1cc(OC)c2c(=O)cc(CCCCC(O)CC(=O)O)oc2c1 (centres unmarked) [Compound 4, Penithochromone P] | -9.72% | 12.2% | – |
| COC(=O)CC(O)CCCCc1cc(=O)c2c(OC)cc(OC)cc2o1 (centres unmarked) [Compound 5, Penithochromone Q] | 1.41% | 11.2% | – |
| O=C(O)CC(O)CCCCc1cc(=O)c2c(O)cc(O)cc2o1 (centres unmarked) [Compound 6, Penithochromone R] | 27.3% | 33.8% | IC50 [2]: 842 ± 11 µM |
| COc1cc(O)c2c(=O)cc(CC(O)CCCCCCC(=O)O)oc2c1 (centres unmarked) [Compound 7, Penithochromone S] | 25.2% | 23.6% | IC50 [2]: 917 ± 8 µM |
| COc1cc(O)c2c(=O)cc(CC(O)CCCC/C=C/C(=O)O)oc2c1 (centres unmarked) [Compound 8, Penithochromone T] | 41.7% | 19.3% | IC50 [2]: 1020 ± 22 µM |
| COc1cc(O)c2c(=O)cc(CCCCCCC(=O)O)oc2c1 [Compound 9, penithochromone C] | 40.2% | 18.1% | IC50 [2]: 688 ± 24 µM |
| O=C(O)CCCCCCc1cc(=O)c2c(O)cc(O)cc2o1 [Compound 10, penithochromone A] | 74.7% | 21.8% | IC50 [2]: 268 ± 25 µM |
| O=C1O[C@H]([C@@H](O)CO)C(O)=C1O [Vitamin C, vitamin C, reference compound] | – | 96.4% | IC50 [3]: 26.7 µM |
| COC(=O)[C@H](O)C[C@](O)(C(=O)OC)[C@@H]1Cc2c(oc3cc(C)cc(O)c3c2=O)S1 [oxalicumone A, oxalicumones A] | – | – | IC50 [4]: < 10 µM |
| COC(=O)[C@H](O)C[C@](O)(C(=O)OC)[C@H]1Cc2c(oc3cc(C)cc(O)c3c2=O)S1 [oxalicumone B, oxalicumones B] | – | – | IC50 [4]: < 10 µM |
| COC(=O)C(O)(C[C@@H](O)C(=O)O)[C@@H]1Cc2c(oc3cc(C)cc(O)c3c2=O)S1 (some centres unmarked) [oxalicumone D, oxalicumones D] | – | – | IC50 [4]: < 10 µM |
| COC(=O)CC(O)(C(=O)OC)[C@@H]1Cc2c(oc3cc(C)cc(O)c3c2=O)S1 (some centres unmarked) [oxalicumone E, oxalicumones E] | – | – | IC50 [4]: < 10 µM |
| Pestalotiochromone A | – | – | Kd [5]: 6.2 µM |
